Results published in publication PMC8617976, “Inhibitory Potential of New Phenolic Hydrazide-Hydrazones with a Decoy Substrate Fragment towards Laccase from a Phytopathogenic Fungus: SAR and Molecular Docking Studies” (International Journal of Molecular Sciences, 2021).

Legend:
[1] = biological target: T1, laccase from Trametes versicolor; assay: syringaldazine oxidation at […] nm, Lineweaver-Burk; format: biochemical; conditions: McIlvaine buffer pH 5.3, 25 °C, 30 min preincubation, methanol co-solvent, printed as not active up to 1000 µM, type not determined
T1 construct: gene LCC2; PDB 1GYC (laccase 2) used for docking only

[2] = biological target: T1, laccase from Trametes versicolor; assay: syringaldazine oxidation at […] nm, Lineweaver-Burk; format: biochemical; conditions: McIlvaine buffer pH 5.3, 25 °C, 30 min preincubation, methanol co-solvent
[3] = mixed type, non-competitive component

`CC(=O)NN=Cc1cc(C)cc(C(C)(C)C)c1O` (mixture of isomers) [3a, (E/Z)-N’-(3-tert-butyl-2-hydroxy-5-methyl-benzylidene)acetohydrazide] was tested, and the KI [1] was greater than 1000 µM.
Molecule `Cc1cc(/C=N/NC(=O)Cc2ccc(O)cc2)c(O)c(C(C)(C)C)c1` [3b, 2-(4-Hydroxyphenyl)-N’-[(E)-(3-tert-butyl-2-hydroxy-5-methylphenyl)methylidene]acetohydrazide] has a Ki ([2]; uncompetitive, text b18 prints 49.1) of 49.2 µM.
With `Cc1cc(/C=N/NC(=O)c2ccccc2)c(O)c(C(C)(C)C)c1` [4b, N’-[(E)-(3-tert-butyl-2-hydroxy-5-methylphenyl)methylidene]benzohydrazide] the Ki ([2]; competitive) was 82 µM.
`COc1cccc(C(=O)N/N=C/c2cc(C)cc(C(C)(C)C)c2O)c1` [4c, 3-Methoxy-N’-[(E)-(3-tert-butyl-2-hydroxy-5-methylphenyl)methylidene]benzohydrazide] gave a Ki ([2]; non-competitive) of 17.4 µM.
In the case of `COc1ccc(C(=O)N/N=C/c2cc(C)cc(C(C)(C)C)c2O)cc1` [4d, 4-Methoxy-N’-[(E)-(3-tert-butyl-2-hydroxy-5-methylphenyl)methylidene]benzohydrazide], the Ki ([2]; competitive) is reported as 25.8 µM.
`Cc1cc(/C=N/NC(=O)c2ccccc2O)c(O)c(C(C)(C)C)c1` [4e, 2-Hydroxy-N’-[(E)-(3-tert-butyl-2-hydroxy-5-methylphenyl)methylidene]benzohydrazide] gave a Ki ([2]; uncompetitive) of 150 µM.
`Cc1cc(/C=N/NC(=O)c2cc(O)cc(O)c2)c(O)c(C(C)(C)C)c1` [4f, 3,5-Dihydroxy-N’-[(E)-(3-tert-butyl-2-hydroxy-5-methylphenyl)methylidene]benzohydrazide] was tested, and the Ki ([2]; competitive) was 32.3 µM.
In the case of `CC(C)(C)c1cc(/C=N/NC(=O)c2ccccc2O)c(O)c(C(C)(C)C)c1` [4g, 2-Hydroxy-N’-[(E)-(3,5-di-tert-butyl-2-hydroxyphenyl)methylidene]benzohydrazide], the Ki ([2]; non-competitive) is reported as 52.6 µM.
For `CC(C)(C)c1cc(/C=N/NC(=O)c2cccc(O)c2)c(O)c(C(C)(C)C)c1` [4h, 3-Hydroxy-N’-[(E)-(3,5-di-tert-butyl-2-hydroxyphenyl)methylidene]benzohydrazide], the Ki ([2]; competitive) was 18.9 µM.
Work on `CC(C)(C)c1cc(/C=N/NC(=O)c2cc(O)cc(O)c2)c(O)c(C(C)(C)C)c1` [4i, 3,5-Dihydroxy-N’-[(E)-(3,5-di-tert-butyl-2-hydroxyphenyl)methylidene]benzohydrazide] yielded a Ki ([2]; competitive) of 55.6 µM.
`CC(C)(C)c1cccc(/C=N/NC(=O)c2ccccc2O)c1O` [4j, 2-Hydroxy-N’-[(E)-(3-tert-butyl-2-hydroxyphenyl)methylidene]benzohydrazide] showed a Ki ([2]; uncompetitive) of 65.6 µM.
With `CC(C)(C)c1cccc(/C=N/NC(=O)c2cccc(O)c2)c1O` [4k, 3-Hydroxy-N’-[(E)-(3-tert-butyl-2-hydroxyphenyl)methylidene]benzohydrazide] the Ki ([2]; competitive) was 35.8 µM.
With `CC(C)(C)c1cccc(/C=N/NC(=O)c2cc(O)cc(O)c2)c1O` [4l, 3,5-Dihydroxy-N’-[(E)-(3-tert-butyl-2-hydroxyphenyl)methylidene]benzohydrazide] the Ki ([2]; competitive) was 38 µM.
`O=C(N/N=C/c1cccc(-c2ccccc2)c1O)c1ccccc1O` [4m, 2-Hydroxy-N’-[(E)-(2-hydroxy-3-phenyl-phenyl)methylidene]benzohydrazide] gave a Ki ([2]; mixed type, competitive component) of 26.4 µM.
`O=C(N/N=C/c1cccc(-c2ccccc2)c1O)c1cccc(O)c1` [4n, 3-Hydroxy-N’-[(E)-(2-hydroxy-3-phenyl-phenyl)methylidene]benzohydrazide] gave a Ki [2, 3] of 139 µM.
For `O=C(N/N=C/c1cccc(-c2ccccc2)c1O)c1cc(O)cc(O)c1` [4o, 3,5-Dihydroxy-N’-[(E)-(2-hydroxy-3-phenyl-phenyl)methylidene]benzohydrazide], the Ki ([2]; non-competitive) was 69.9 µM.
With `Cc1cc(/C=N/NC(=O)c2ccc3ccccc3c2O)c(O)c(C(C)(C)C)c1` [5a, N’-[(E)-(3-tert-butyl-2-hydroxy-5-methylphenyl)methylidene]-2-(1-hydroxynaphtho)hydrazide] the Ki [2, 3] was 8 µM.
With `O=C(N/N=C/c1cccc(-c2ccccc2)c1O)c1ccc2ccccc2c1O` [5b, N’-[(E)-(2-hydroxy-3-phenylphenyl)methylidene]-2-(1-hydroxynaphtho)hydrazide] the Ki [2, 3] was 24.3 µM.
`CC(C)(C)c1cc(/C=N/NC(=O)c2ccc3ccccc3c2O)c(O)c(C(C)(C)C)c1` [5c, N’-[(E)-(3,5-di-tert-butyl-2-hydroxy-phenyl)methylidene]-2-(1-hydroxynaphtho)hydrazide monomethanolate] was tested, and the Ki ([2]; non-competitive) was 16.2 µM.
With `CC(C)(C)c1cccc(/C=N/NC(=O)c2ccc3ccccc3c2O)c1O` [5d, N’-[(E)-(3-tert-butyl-2-hydroxy-phenyl)methylidene]-2-(1-hydroxynaphtho)hydrazide] the Ki [2, 3] was 55.6 µM.
